{"source": "patent US5770573A", "about": "“CS-1 peptidomimetics, compositions and methods of using the same” (Cytel Corporation, priority 1995, dated 1998)", "target": "VLA-4 (Homo sapiens, UniProt P05556+P13612)", "sequence (P13612 34-1032)": "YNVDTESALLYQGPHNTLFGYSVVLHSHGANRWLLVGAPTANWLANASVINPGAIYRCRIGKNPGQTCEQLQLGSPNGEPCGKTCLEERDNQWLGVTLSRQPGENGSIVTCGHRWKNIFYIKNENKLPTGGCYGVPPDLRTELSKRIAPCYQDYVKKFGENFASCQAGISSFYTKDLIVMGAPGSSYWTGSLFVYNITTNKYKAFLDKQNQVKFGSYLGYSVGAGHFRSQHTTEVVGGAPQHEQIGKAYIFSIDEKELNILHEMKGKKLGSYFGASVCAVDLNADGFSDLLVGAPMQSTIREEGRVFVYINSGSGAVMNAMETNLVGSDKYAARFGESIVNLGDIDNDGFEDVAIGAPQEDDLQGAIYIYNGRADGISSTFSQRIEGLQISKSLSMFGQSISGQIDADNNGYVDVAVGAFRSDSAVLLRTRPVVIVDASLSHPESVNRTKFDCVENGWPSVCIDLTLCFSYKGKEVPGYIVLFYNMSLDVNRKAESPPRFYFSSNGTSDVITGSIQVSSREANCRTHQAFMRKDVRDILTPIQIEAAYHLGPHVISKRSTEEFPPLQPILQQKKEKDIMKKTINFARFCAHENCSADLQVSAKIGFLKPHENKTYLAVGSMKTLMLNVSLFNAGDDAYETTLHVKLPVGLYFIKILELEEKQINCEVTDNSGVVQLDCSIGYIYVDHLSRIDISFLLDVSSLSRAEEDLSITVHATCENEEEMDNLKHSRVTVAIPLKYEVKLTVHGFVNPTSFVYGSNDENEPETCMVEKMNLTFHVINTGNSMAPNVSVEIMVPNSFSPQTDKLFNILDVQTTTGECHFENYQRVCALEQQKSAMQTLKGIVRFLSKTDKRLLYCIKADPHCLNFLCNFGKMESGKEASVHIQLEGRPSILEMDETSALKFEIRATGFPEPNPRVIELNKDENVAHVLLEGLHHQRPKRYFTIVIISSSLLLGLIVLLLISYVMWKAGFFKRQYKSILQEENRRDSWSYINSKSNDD", "sequence (P05556 21-798)": "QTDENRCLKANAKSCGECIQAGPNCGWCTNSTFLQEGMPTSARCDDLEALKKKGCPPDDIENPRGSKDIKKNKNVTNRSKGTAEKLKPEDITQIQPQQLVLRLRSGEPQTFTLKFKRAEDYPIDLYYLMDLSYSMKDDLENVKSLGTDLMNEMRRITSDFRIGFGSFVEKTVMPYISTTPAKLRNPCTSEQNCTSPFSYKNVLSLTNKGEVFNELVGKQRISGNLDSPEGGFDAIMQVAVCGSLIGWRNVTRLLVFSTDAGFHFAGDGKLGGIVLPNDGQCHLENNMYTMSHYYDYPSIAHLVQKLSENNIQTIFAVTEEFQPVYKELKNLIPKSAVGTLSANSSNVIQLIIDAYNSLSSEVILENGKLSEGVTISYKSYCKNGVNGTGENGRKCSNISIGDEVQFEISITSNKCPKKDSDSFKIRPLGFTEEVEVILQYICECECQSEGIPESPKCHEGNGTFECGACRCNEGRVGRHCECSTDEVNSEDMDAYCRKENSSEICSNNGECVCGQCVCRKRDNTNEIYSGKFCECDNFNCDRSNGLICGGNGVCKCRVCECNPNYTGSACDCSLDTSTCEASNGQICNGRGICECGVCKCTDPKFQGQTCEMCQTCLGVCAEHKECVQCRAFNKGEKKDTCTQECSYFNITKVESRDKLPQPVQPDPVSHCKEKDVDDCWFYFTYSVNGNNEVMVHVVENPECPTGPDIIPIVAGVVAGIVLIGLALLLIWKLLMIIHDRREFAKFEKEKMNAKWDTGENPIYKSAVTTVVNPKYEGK", "assay": "In vitro binding inhibition of 51Cr-labeled Jurkat cells to solid phase-bound CS-1 compound (SEQ ID NO:1)", "assay_type": "cell-based", "set-up": "inflammatory cells that contain the VLA-4 receptor [Jurkat cells; host or cells: Jurkat (human T lymphoblastic line)", "procedure,_shortened": "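51Cr-labeled human Jurkat cells were preincubated with compound 30 min at about 22° C, then allowed to bind to wells coated with CS-1 peptide or CS-1-OVA for 30 min at 37° C. After washing, bound cells were lysed with SDS and counted. IC50 is the concentration halving binding, normalized to SEQ ID NO: 3.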", "note": "Square brackets hold non-standard residues; d marks the D form. Peptide text beside a SMILES is read from it. * marks the point of attachment. PhAc = O=C(Cc1ccccc1)*"}
{"compound": "CC(C)C[C@H](NC(=O)[C@H](CC(=O)O)NC(=O)Cc1ccccc1)C(=O)N[C@@H](Cc1ccccc1)C(=O)N1CCC[C@@H]1C(N)=O", "note": "[Compound ID No. 1066.02, N-phenylacetyl-Asp-Leu-Phe-D-Pro-NH2, reference compound] (PhAc-DLF[dP]-NH2)", "values": [{"measurement": "Relative Potency", "setting": "binding inhibition potency relative to standard compound of SEQ ID NO:3 = 1 (normalized IC50), about one-tenth or less assigned zero", "result": 0}, {"measurement": "VLA-4 binding inhibition compared in words", "setting": "compared with standard 10-mer of SEQ ID NO:3", "result": "no inhibition of VLA-4"}]}
